Earlier results as cited in patent US12433928B2, “Therapeutic treatment for the coronavirus disease COVID-19” (priority 2020, dated 2025).

Tested on: herpes simplex virus type 1 (HSV-1)
Conditions: certain viruses, e.g. HSV-1 in vitro

## Cc1ccc(C(C)C)c(O)c1 [thymol]
  antiviral activity in medical studies: antiviral activity and effectiveness
